# Laboratory results reported in patent publication US6998383B2, “Inhibitors of receptor activator of NF-κB and uses thereof” (Research Development Corporation, priority 2001, dated 2006).
# Key:
# [1] = test system: RAW264.7 cells; assay: RANKL-mediated osteoclast differentiation in RAW264.7 cells (TRAP staining); format: cell-based, mouse
# Procedure: RAW264.7 cells were plated in 12-well plates and stimulated with RANKL (30 ng/ml) for 4 days. Cells were stained for TRAP essentially as described below. Photographs were taken using a 10× objective lens.
# RAW cells were plated as described in FIG. 2A and treated with RANKL in the presence of 1, 30, or 100 μM of peptides as indicated. On day 4 cells were stained and evaluated as in FIG. 2A.
# RAW264.7 cells were plated in 48-well plates in triplicate and treated with RANKL in the presence of increasing amounts of the indicated peptides. After 4-5 days, the cells were stained for TRAP and the total numbers of osteoclasts were counted as described below.
# Primary bone marrow monocytes (BM) or RAW264.7 cells were cultured in 48-well dishes at a density of 1×10^5 cells/well or 2×10^3 cells/well, and then treated with the indicated factors at the beginning of the culture and during a medium change on day 3. Osteoclast formation was assessed by counting the total number of multi-nucleated (>3 nuclei), TRAP-positive cells present per well between day 7 and 10 (BM) or on day 5 (RAW264.7) (30).
# The mouse macrophage cell line RAW264.7 express the receptor activator of NF-κB on their cell surface and when stimulated with the receptor activator of NF-κB ligand differentiate into multi-nucleated, tartrate resistant acid phosphatase (TRAP) positive osteoclasts after 4-5 days (FIG. 2A). To determine whether L-T6DP-1 could inhibit RANKL-mediated osteoclast differentiation, RAW264.7 cells were co-cultured with increasing concentrations of either L-T6DP-1. or T6DP-1 and 30 ng/ml RANKL for 4 days.
# [2] = target: T1, TRAF5 binding to the cytoplasmic domain of RANK (Mus musculus, UniProt P70191); assay: Competitive GST-pull down assay, TRAF5 binding to RANK cytoplasmic domain; details: 100 μM peptide, FLAG-TRAF5 293 cell extract (FIG. 4C)
# T1 construct: expressed in transfected cells; host or cells: human 293 cells (TRAF lysate); The GST-RANK fusion was purified as previously described
# T1 sequence (P70191 whole entry, the tested form may be a part): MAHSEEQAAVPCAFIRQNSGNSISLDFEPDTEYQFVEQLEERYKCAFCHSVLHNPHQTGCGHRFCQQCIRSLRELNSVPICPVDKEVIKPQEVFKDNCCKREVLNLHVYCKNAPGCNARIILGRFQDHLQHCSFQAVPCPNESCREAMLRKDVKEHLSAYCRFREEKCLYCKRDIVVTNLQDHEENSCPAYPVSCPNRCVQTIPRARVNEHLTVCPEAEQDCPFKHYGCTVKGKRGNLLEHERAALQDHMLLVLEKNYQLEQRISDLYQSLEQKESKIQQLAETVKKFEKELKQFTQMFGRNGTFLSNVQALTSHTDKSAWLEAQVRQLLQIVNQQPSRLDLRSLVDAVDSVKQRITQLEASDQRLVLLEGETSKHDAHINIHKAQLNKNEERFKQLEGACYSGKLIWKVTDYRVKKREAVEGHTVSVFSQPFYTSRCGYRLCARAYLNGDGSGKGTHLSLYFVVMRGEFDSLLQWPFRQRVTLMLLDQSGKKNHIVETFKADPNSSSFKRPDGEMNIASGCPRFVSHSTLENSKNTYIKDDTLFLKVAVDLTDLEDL
# Procedure: Cellular extracts from human 293 cells transfected with either FLAG-TRAF2, -TRAF5, or -TRAF6 were mixed with GST or GST-RANKed in the absence or presence of 100 μM of the indicated peptides. A GST-pull down assay was performed as described below. The bound TRAFs were visualized by immunoblotting with anti-FLAG antibodies.
# Equivalent amounts of GST or GST-RANK cytoplasmic domain (GST-RANKed) fusion protein attached to 20 μl of glutathione agarose beads were mixed with lysates (50 μg) from 293 cells programmed to express the epitope-tagged TRAF protein and the indicated peptides in binding buffer (20 mM TRIS, pH 8, 150 mM NaCl, 1 mM DTT, 2 mM EDTA, and 0.1% NP-40) and allowed to rotate for 1 h at 4° C. The beads were collected by centrifugation, washed three times in binding buffer, and then washed once in low-salt buffer (20 mM TRIS, pH 8, 50 mM NaCl, and 1 mM DTT). Bound proteins were eluted with addition of SDS-sample buffer and boiled. The eluted proteins were subjected to 7.5% SDS-PAGE and western blot analysis was performed with anti-FLAG antibodies.
# The cytoplasmic domain of RANK interacts with many TRAF molecules, including TRAF1, 2, 3, 5, and 6 (7-9, 11, 12). While TRAF1, 2, 3, and 5 interact with the c-terminal tail of receptor activator of NF-κB, TRAF6 interacts with a membrane proximal region of the cytoplasmic domain of the receptor activator of NF-κB. […]
# [3] = test system: ERK; assay: RANKL-mediated ERK activation in RAW264.7 cells (phospho-specific immunoblot); format: cell-based, mouse; details: peptide 6 h, RANKL 10 nM 15 min (FIG. 5B)
# Procedure: (§1) FIG. 5B and FIG. 5C show inhibition of RANKL-mediated ERK and p38 activation by L-T6DP-1. Whole cell extracts (30 μg) from FIG. 5A were separated by 10% SDS-PAGE and electroblotted onto a nitrocellulose membrane. The membranes were first immunoblotted with the indicated phospho-specific antibody and then stripped and re-probed with the indicated antibodies as described below.
# (§2) Stimulation of the receptor activator of NF-κB activates members of the MAPK family including JNK, ERK and p38 kinase. The ability of the TRAF6 binding peptides to inhibit the receptor activator of NF-κB ligand-induced JNK, ERK, and p38 kinase activation was examined in RAW264.7 cells. […] Similar to the results with JNK, only L-T6DP-1 was able to block ERK (FIG. 5B) and p38 kinase (FIG. 5C) activation induced by the receptor activator of NF-κB ligand in RAW264.7 cells.
# [4] = test system: p38 kinase; assay: RANKL-mediated p38 kinase activation in RAW264.7 cells (phospho-specific immunoblot); format: cell-based, mouse; details: peptide 6 h, RANKL 10 nM 15 min (FIG. 5C)
# Procedure: as §1, §2
# [5] = test system: RAW cells co-cultured with breast cancer cell lines; assay: Osteoclast differentiation of RAW cells induced by co-cultured breast cancer cells (T47D, MDA-MB-468); format: cell-based, mouse; details: co-culture, 100 μM peptide, 5 days, TRAP staining (FIG. 6A)
# Procedure: FIG. 6A: Breast cancer cells (500/well) were plated in 24-well plates in the absence or presence of RAW cells (10000/well) and in the absence or presence of L-T6DP-1 or T6DP-1 (100 μM). After 5 days. the cells were fixed, stained for TRAP, and photographed with a 10× objective lens.
# The number of MG-63 cells was critical for inducing RAW cells to differentiate into osteoclasts. These observations lead to a direct inverse relationship between the number of RAW cells to MG-63 cells which is required for the formation of osteoclasts. […] When grown on synthetic bone slides, the osteoclasts derived from the co-culture assays were able to cause bone resorption (FIG. 6B).
# When L-T6DP-1 was added to these co-culture assays, the ability of the breast cancer cells to induce osteoclast differentiation of RAW cells was abolished, whereas T6DP-1 had no effect (FIG. 6A).
substance,measurement,setting,value
L-T6DP-1: Kaposi fibroblast growth factor signal sequence hydrophobic domain attached to murine RANK peptide containing the known TRAF6 binding domain (AAVALLPAVLLALLAPRKIPTEDEYTDRPSQPST; PEPTIDE Peptide L-T6Bp-1),RANKL-mediated osteoclast differentiation,"[1]; 30 ng/ml RANKL, 4 days, 1, 30 or 100 μM peptide (FIG. 2B)",dose-dependent inhibition
same,multi-nucleated osteoclasts,"[1]; RANKL, 100 μM peptide, cells still TRAP positive (FIG. 2B)",multi-nucleated osteoclast were not observed
same,number of TRAP positive osteoclasts,"[1]; RANKL, increasing amounts of peptide, 4-5 days (FIG. 2C)",dose-dependent decrease
same,TRAF5 binding to the cytoplasmic domain of RANK,[2],neither L-T6DP-1 nor L-T6DP-2 inhibited
same,RANKL-induced ERK activation,[3],able to block
same,RANKL-induced p38 kinase activation,[4],able to block
same,ability of breast cancer cells to induce osteoclast differentiation of RAW cells,[5],abolished
